Laboratory results as given in BindingDB's records for patent US12209085 (Sunshine Lake Pharma Co., 2025).

Assays:
Experiment in all cases: Inhibitory Activity Assay
[1] = target: Proto-oncogene tyrosine-protein kinase receptor Ret (Homo sapiens, UniProt P07949)
[2] = target: Proto-oncogene tyrosine-protein kinase receptor Ret [V804M] (Human, UniProt P07949, V804M)
[3] = target: Coiled-coil domain-containing protein 6/Proto-oncogene tyrosine-protein kinase receptor Ret (Homo sapiens, UniProt P07949)
Sequence of Coiled-coil domain-containing protein 6/Proto-oncogene tyrosine-protein kinase receptor Ret (P07949 whole entry, the tested form may be a part): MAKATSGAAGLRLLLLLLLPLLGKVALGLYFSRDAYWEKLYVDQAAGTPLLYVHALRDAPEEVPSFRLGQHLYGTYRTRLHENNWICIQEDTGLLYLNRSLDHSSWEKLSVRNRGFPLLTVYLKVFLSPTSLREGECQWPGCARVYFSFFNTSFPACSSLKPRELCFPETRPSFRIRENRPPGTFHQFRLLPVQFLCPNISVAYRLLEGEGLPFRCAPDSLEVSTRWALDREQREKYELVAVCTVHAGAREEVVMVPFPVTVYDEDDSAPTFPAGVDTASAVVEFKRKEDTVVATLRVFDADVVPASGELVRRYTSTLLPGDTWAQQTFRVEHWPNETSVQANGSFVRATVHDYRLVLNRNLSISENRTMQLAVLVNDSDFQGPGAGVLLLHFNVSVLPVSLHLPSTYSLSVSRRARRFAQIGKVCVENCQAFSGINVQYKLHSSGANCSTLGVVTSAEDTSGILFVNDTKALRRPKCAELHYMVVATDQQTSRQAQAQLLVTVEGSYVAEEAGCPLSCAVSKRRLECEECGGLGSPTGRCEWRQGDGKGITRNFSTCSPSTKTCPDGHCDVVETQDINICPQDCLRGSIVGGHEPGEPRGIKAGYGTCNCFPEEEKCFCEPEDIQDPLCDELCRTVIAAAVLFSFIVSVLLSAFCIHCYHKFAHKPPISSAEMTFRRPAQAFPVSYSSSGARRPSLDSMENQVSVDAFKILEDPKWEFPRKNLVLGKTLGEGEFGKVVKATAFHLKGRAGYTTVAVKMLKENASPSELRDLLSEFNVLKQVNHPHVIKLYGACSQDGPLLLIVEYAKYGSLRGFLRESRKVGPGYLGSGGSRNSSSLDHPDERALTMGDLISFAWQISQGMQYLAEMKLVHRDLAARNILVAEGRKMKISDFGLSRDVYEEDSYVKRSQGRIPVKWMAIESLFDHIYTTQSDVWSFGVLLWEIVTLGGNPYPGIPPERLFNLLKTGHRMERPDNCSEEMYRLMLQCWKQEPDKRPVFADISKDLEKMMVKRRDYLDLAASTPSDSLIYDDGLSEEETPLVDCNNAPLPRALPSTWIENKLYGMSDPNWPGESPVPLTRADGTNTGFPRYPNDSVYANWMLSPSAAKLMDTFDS
Sequence of Coiled-coil domain-containing protein 6/Proto-oncogene tyrosine-protein kinase receptor Ret (Q16204 whole entry, further chain, the tested form may be a part): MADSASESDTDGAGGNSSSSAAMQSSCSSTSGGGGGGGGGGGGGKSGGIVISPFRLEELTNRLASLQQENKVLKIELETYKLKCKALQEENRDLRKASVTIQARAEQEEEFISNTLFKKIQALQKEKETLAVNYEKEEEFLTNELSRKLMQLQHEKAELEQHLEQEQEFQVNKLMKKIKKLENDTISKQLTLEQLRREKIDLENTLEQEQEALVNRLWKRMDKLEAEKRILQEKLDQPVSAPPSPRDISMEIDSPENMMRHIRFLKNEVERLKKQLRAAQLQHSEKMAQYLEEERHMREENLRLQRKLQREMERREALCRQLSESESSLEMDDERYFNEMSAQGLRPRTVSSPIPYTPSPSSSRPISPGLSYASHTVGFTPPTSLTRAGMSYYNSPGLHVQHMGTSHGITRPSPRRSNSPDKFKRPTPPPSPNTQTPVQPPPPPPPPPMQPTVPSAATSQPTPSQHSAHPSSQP

[4] = target: Proto-oncogene tyrosine-protein kinase receptor Ret [M918T] (Homo sapiens, UniProt P07949, M918T)
Sequence of Proto-oncogene tyrosine-protein kinase receptor Ret [M918T] (P07949 29-1114 M918T limits assumed): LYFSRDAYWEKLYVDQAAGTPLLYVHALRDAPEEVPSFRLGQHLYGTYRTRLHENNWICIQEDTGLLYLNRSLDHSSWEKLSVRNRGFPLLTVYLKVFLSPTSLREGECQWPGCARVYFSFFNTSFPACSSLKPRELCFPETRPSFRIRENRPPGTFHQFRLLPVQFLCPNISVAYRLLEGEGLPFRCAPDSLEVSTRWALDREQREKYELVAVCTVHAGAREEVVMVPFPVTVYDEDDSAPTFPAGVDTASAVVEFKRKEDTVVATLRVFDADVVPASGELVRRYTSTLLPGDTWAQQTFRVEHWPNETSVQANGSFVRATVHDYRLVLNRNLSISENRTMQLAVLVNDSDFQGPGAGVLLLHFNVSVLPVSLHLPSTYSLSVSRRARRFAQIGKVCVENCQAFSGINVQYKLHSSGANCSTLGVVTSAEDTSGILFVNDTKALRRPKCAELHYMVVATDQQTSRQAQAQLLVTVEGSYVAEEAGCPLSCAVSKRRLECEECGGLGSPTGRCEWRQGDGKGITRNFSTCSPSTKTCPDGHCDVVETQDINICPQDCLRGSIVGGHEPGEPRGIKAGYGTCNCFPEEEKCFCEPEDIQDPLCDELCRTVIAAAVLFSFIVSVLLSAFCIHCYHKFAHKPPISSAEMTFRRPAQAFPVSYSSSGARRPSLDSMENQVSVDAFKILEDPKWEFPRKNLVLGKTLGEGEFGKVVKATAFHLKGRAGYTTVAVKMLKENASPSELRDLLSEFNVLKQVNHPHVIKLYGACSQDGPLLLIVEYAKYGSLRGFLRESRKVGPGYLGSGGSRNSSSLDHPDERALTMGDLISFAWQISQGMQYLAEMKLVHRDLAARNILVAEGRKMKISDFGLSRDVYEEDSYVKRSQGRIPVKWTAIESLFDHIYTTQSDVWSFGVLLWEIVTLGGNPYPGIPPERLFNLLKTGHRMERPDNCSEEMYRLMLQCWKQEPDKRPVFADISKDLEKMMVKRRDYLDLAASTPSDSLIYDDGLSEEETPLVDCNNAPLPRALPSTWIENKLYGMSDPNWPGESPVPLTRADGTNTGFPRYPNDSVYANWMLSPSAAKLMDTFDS

[5] = target: Proto-oncogene tyrosine-protein kinase receptor Ret [V804L] (Homo sapiens, UniProt P07949, V804L)
Sequence of Proto-oncogene tyrosine-protein kinase receptor Ret [V804L] (P07949 29-1114 V804L limits assumed): as the sequence (P07949 29-1114 M918T limits assumed) above, with V776L, T890M counted along it

Sequence of Proto-oncogene tyrosine-protein kinase receptor Ret (P07949 whole entry): as the sequence (P07949 whole entry, the tested form may be a part) above
Sequence of Proto-oncogene tyrosine-protein kinase receptor Ret [V804M] (P07949 29-1114 V804M limits assumed): as the sequence (P07949 29-1114 M918T limits assumed) above, with V776M, T890M counted along it

| IC50 [3] | IC50 [4] | IC50 [5] | Structure (SMILES) | IC50 [1] | IC50 [2] |
| --- | --- | --- | --- | --- | --- |
| – | – | – | C#Cc1ccc(CN2C3CC2CN(c2ccc(-c4cc(-c5cnn(C)c5)cn5ncc(C#N)c45)cn2)C3)cn1 [US12209085, Example 186] | 0.17 nM | 0.76 nM |
| – | – | – | C#Cc1ncc(CN2C3CC2CN(c2ccc(-c4cc(-c5cnn(C)c5)cn5ncc(C#N)c45)cn2)C3)cc1F [US12209085, Example 227] | 0.13 nM | 0.3 nM |
| 3.16 nM | 1.92 nM | 2.35 nM | C#Cc1cccc(C(=O)NC2CCN(c3ccc(-c4cc(-c5cnn(C)c5)cn5ncc(C#N)c45)cn3)CC2)c1 [US12209085, Example 268] | 2.69 nM | 30.8 nM |
| – | – | – | C#CC#CCN1C2CC1CN(c1ccc(-c3cc(-c4cnn(C)c4)cn4ncc(C#N)c34)cn1)C2 [US12209085, Example 276] | 0.39 nM | 1.08 nM |
